This is an account of results in publication PMC12406253, “Exploration of the Neuromodulatory Properties of Fyn and GSK-3β Kinases Exploiting 7‑Azaindole-Based Inhibitors” (Journal of Medicinal Chemistry, 2025).

One test has as its target human recombinant GSK-3β (Homo sapiens, UniProt P49841). In words: GSK-3β kinase assay, LANCE Ultra TR-FRET. The class given is biochemical. As to conditions: for IC50: mean ± SD of at least three independent determinations, ATP near Km; for inhibition at 50 µM: mean ± SD, n.i. = no inhibition. How it is done:
GSK-3β and FYNα kinase assays were run in 384-well microplates (OptiPlate-384, White, PerkinElmer) in a total reaction volume of 20 μL. The inhibitory potency against human recombinant GSK-3β and FYNα (Carna Biosciences) was evaluated using the LANCE Ultra (PerkinElmer) time-resolved fluorescence resonance energy transfer (TR-FRET) by measuring the phosphorylation of the ULight-labeled substrate, according to the manufacturer's instructions. […] Briefly, test compounds and staurosporine (reference compound) or DMSO (control) are mixed with the enzyme (GSK-3β: 2 nM and FYNα: 1 nM) in a buffer containing 50 mM HEPES (pH 7.5), 1 mM EGTA, 10 mM MgCl2, 2 mM DTT, and 0.01% Tween-20. […] Following incubation, the reaction is stopped by adding 6 mM EDTA. After 5 min, the antiphospho antibody labeled with europium chelate is added. After 1 more hour, the kinase reaction is monitored by irradiation at 320 nm and the fluorescence measured at 615 and 665 nm, using EnVision 2014 Multilabel Reader (PerkinElmer). The calculated signal ratio at 665/615 nm is proportional to the extent of ULight-substrate phosphorylation. The compounds were tested at 11 different concentrations ranging from 3 nM up to 100 μM in triplicate. […] The results were expressed as a percent inhibition of the control enzyme activity. Dose-response curves were run in at least three independent experiments, performed in three technical replicates. IC50 values (concentrations causing half-maximal enzyme inhibition) were determined by nonlinear regression analysis of the Log[concentration]/response curves generated with mean replicate values using a four parameter Hill equation curve fitting with GraphPad Prism 8 (GraphPad Software Inc., CA-USA).
Background: Time-resolved FRET reads energy transfer from a long-lived donor to a nearby acceptor.

The target of a further test is FYNα (Homo sapiens, UniProt P06241). Kind of test: FYNα kinase assay, LANCE Ultra TR-FRET. The class given is biochemical. To be noted: for Fyn % Inhibition @ 50 μM / inhibition at 50 µM: mean ± SD, n.i. = no inhibition; for inhibition at 50 µM: read-out: Fyn % Inhibition @ 50 μM; for IC50: mean ± SD of at least three independent determinations, ATP near Km, read-out: Fyn IC50. The method, then: GSK-3β and FYNα kinase assays were run in 384-well microplates (OptiPlate-384, White, PerkinElmer) in a total reaction volume of 20 μL. The inhibitory potency against human recombinant GSK-3β and FYNα (Carna Biosciences) was evaluated using the LANCE Ultra (PerkinElmer) time-resolved fluorescence resonance energy transfer (TR-FRET) by measuring the phosphorylation of the ULight-labeled substrate, according to the manufacturer’s instructions. The synthetic peptide surrounding Ser641 of human muscle glycogen synthase (ULight-GS (Ser641/pSer657)) and the synthetic 28-amino acid peptide containing eight Tyr residues placed in different amino acid contexts (ULightTM-TK (PT66)) were selected as specific substrates for GSK-3β and FYNα, respectively. Briefly, test compounds and staurosporine (reference compound) or DMSO (control) are mixed with the enzyme (GSK-3β: 2 nM and FYNα: 1 nM) in a buffer containing 50 mM HEPES (pH 7.5), 1 mM EGTA, 10 mM MgCl2, 2 mM DTT, and 0.01% Tween-20. […] Following incubation, the reaction is stopped by adding 6 mM EDTA. After 5 min, the antiphospho antibody labeled with europium chelate is added. After 1 more hour, the kinase reaction is monitored by irradiation at 320 nm and the fluorescence measured at 615 and 665 nm, using EnVision 2014 Multilabel Reader (PerkinElmer). The calculated signal ratio at 665/615 nm is proportional to the extent of ULight-substrate phosphorylation. The compounds were tested at 11 different concentrations ranging from 3 nM up to 100 μM in triplicate. […] The results were expressed as a percent inhibition of the control enzyme activity.
Dose–response curves were run in at least three independent experiments, performed in three technical replicates. IC50 values (concentrations causing half-maximal enzyme inhibition) were determined by nonlinear regression analysis of the Log[concentration]/response curves generated with mean replicate values using a four parameter Hill equation curve fitting with GraphPad Prism 8 (GraphPad Software Inc., CA-USA).

Where a name gives a salt, the structure may show the parent alone.

Sequence of FYNα (P06241 whole entry): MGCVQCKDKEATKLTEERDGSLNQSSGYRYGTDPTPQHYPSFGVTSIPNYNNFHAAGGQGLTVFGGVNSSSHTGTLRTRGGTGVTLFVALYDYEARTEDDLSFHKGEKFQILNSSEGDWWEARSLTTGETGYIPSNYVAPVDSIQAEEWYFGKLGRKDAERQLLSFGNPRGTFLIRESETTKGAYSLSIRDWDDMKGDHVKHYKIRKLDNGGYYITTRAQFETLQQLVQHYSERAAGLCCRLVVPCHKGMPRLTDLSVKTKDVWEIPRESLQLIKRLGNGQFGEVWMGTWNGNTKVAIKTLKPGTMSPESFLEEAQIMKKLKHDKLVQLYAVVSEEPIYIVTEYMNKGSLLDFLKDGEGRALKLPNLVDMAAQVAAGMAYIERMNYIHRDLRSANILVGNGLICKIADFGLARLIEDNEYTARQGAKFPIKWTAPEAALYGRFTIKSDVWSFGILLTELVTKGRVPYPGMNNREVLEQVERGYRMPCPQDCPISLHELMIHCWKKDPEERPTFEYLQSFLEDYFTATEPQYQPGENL
Sequence of human recombinant GSK-3β (P49841 whole entry): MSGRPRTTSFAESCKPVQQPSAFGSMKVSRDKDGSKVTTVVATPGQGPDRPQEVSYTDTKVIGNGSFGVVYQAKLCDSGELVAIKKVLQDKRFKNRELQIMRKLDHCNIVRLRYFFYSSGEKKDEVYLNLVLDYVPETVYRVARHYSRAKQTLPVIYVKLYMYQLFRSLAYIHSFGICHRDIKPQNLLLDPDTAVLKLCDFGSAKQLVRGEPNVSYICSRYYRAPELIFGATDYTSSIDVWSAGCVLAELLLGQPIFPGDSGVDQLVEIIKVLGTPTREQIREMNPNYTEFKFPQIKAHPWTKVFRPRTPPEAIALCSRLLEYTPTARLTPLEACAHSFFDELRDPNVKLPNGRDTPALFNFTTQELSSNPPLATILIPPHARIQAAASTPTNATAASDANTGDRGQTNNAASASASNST

With `c1ccc(CCNc2nc(-c3c[nH]c4ncccc34)cs2)cc1` [Compound 31, N-Phenethyl-4-(1H-pyrrolo[2,3-b]pyridin-3-yl)thiazol-2-amine Hydrobromide], the IC50 at human recombinant GSK-3β came out at 7.5 ± 1.29 µM.
Regarding `Br.Clc1ccc(Nc2nc(-c3c[nH]c4ncccc34)cs2)cc1` [Compound 13, N-(4-Chlorophenyl)-4-(1H-pyrrolo[2,3-b]pyridin-3-yl)thiazol-2-amine Hydrobromide], the inhibition at 50 µM on human recombinant GSK-3β is 14.8%. Also, the “Fyn % Inhibition @ 50 μM” value on FYNα is reported as “n.i”.
`CNc1nc(-c2c[nH]c3ncccc23)cs1` [Compound 1, N-Methyl-4-(1H-pyrrolo[2,3-b]pyridin-3-yl)thiazol-2-amine Hydrobromide]: the results for the inhibition at 50 µM at human recombinant GSK-3β and on FYNα were 65.8% and 22.3%, respectively.
As for `c1cnc(CNc2nc(-c3c[nH]c4ncccc34)cs2)nc1` [Compound 29, N-(Pyrimidin-2-ylmethyl)-4-(1H-pyrrolo[2,3-b]pyridin-3-yl)thiazol-2-amine Hydrobromide], the IC50 on FYNα came to 15 ± 1.26 µM.
`Br.O=C(Nc1nc(-c2c[nH]c3ncccc23)cs1)c1ccccc1` [Compound 32, N-(4-(1H-Pyrrolo[2,3-b]pyridin-3-yl)thiazol-2-yl)benzamide Hydrobromide]: on FYNα, the “Fyn % Inhibition @ 50 μM” value is recorded as “n.i”.
Consider `Br.CCCCNc1nc(-c2c[nH]c3ncccc23)cs1` [Compound 2, N-Butyl-4-(1H-pyrrolo[2,3-b]pyridin-3-yl)thiazol-2-amine Hydrobromide], for which the inhibition at 50 µM at human recombinant GSK-3β turned out to be 54.9%. For the same molecule, at FYNα, the “Fyn % Inhibition @ 50 μM” value is given as “n.i”.
In the case of `Br.Cn1cc(-c2csc(NCc3ccccc3)n2)c2cccnc21` [Compound 35], the inhibition at 50 µM on human recombinant GSK-3β came to 9.8%. For the same molecule, the “Fyn % Inhibition @ 50 μM” value on FYNα is listed as “n.i”.
`c1ccc(CNc2nc(-c3c[nH]c4ncccc34)cs2)cc1` [Compound 7, N-Benzyl-4-(1H-pyrrolo[2,3-b]pyridin-3-yl)thiazol-2-amine Hydrobromide]: the IC50 on FYNα was determined as 2.04 ± 0.53 µM.
Turning to `Clc1ccccc1Nc1nc(-c2c[nH]c3ncccc23)cs1` [Compound 9, N-(2-Chlorophenyl)-4-(1H-pyrrolo[2,3-b]pyridin-3-yl)thiazol-2-amine Hydrobromide], the inhibition at 50 µM on human recombinant GSK-3β was determined as 32.7%; on FYNα, 55%.
As to `Clc1cccc(CNc2nc(-c3c[nH]c4ncccc34)cs2)c1` [Compound 19, N-(3-Chlorobenzyl)-4-(1H-pyrrolo[2,3-b]pyridin-3-yl)thiazol-2-amine Hydrobromide], the IC50 on FYNα turned out to be 4.71 ± 0.55 µM.
As for `COc1ccccc1CNc1nc(-c2c[nH]c3ncccc23)cs1` [Compound 17, N-(2-Methoxybenzyl)-4-(1H-pyrrolo[2,3-b]pyridin-3-yl)thiazol-2-amine Hydrobromide], the IC50 on FYNα was 7.29 ± 1.03 µM.
Regarding `Br.COc1ccc(Nc2nc(-c3c[nH]c4ncccc34)cs2)cc1` [Compound 12, N-(4-Methoxyphenyl)-4-(1H-pyrrolo[2,3-b]pyridin-3-yl)thiazol-2-amine Hydrobromide], the inhibition at 50 µM at human recombinant GSK-3β amounted to 34.6%. For the same molecule, at FYNα, the “Fyn % Inhibition @ 50 μM” value is recorded as “n.i”.
As for `Br.Cc1ccc(Nc2nc(-c3c[nH]c4ncccc34)cs2)cc1` [Compound 11, 4-(1H-Pyrrolo[2,3-b]pyridin-3-yl)-N-(p-tolyl)thiazol-2-amine Hydrobromide], at human recombinant GSK-3β, the inhibition at 50 µM worked out at 50.1%. On FYNα, the “Fyn % Inhibition @ 50 μM” value was “n.i”.
On to `Cc1ccc(CNc2nc(-c3c[nH]c4ncccc34)cs2)cc1` [Compound 22, N-(4-Methylbenzyl)-4-(1H-pyrrolo[2,3-b]pyridin-3-yl)thiazol-2-amine Hydrobromide], for which the inhibition at 100 µM on human recombinant GSK-3β (read-out: GSK-3β percentage of inhibition at the highest dose tested (100 μM)) was found to be 77.1%.
For the molecule `c1ccc(Nc2nc(-c3c[nH]c4ncccc34)cs2)nc1` [Compound 10, N-(Pyridin-2-yl)-4-(1H-pyrrolo[2,3-b]pyridin-3-yl)thiazol-2-amine Hydrobromide], the inhibition at 50 µM is 24.1% at human recombinant GSK-3β and 3.7% on FYNα.
Take `Br.c1cnc2[nH]cc(-c3csc(NC4CCCCC4)n3)c2c1` [Compound 5, N-Cyclohexyl-4-(1H-pyrrolo[2,3-b]pyridin-3-yl)thiazol-2-amine Hydrobromide]: the inhibition at 50 µM at human recombinant GSK-3β was determined as 37.4%. Also, the “Fyn % Inhibition @ 50 μM” value at FYNα is recorded as “n.i”.
With `COCCNc1nc(-c2c[nH]c3ncccc23)cs1` [Compound 3, N-(2-Methoxyethyl)-4-(1H-pyrrolo[2,3-b]pyridin-3-yl)thiazol-2-amine Hydrobromide], the inhibition at 50 µM on human recombinant GSK-3β was 58.8%; at FYNα it was 41.7%.
Turning to `Clc1ccccc1CNc1nc(-c2c[nH]c3ncccc23)cs1` [Compound 18, N-(2-Chlorobenzyl)-4-(1H-pyrrolo[2,3-b]pyridin-3-yl)thiazol-2-amine Hydrobromide], the IC50 on FYNα was determined as 5.37 ± 1.29 µM.
For the molecule `C=CCNc1nc(-c2c[nH]c3ncccc23)cs1` [Compound 4, N-Allyl-4-(1H-pyrrolo[2,3-b]pyridin-3-yl)thiazol-2-amine Hydrobromide], the inhibition at 50 µM on human recombinant GSK-3β came to 61.6%; at FYNα, 28.5%.
In the case of `Fc1ccc(CNc2nc(-c3c[nH]c4ncccc34)cs2)cc1` [Compound 21, N-(4-Fluorobenzyl)-4-(1H-pyrrolo[2,3-b]pyridin-3-yl)thiazol-2-amine Hydrobromide], the IC50 at FYNα is 7.1 ± 0.47 µM.
With `Nc1nc(-c2c[nH]c3ncccc23)cs1` [Compound I], the IC50 at human recombinant GSK-3β was 6.84 ± 0.17 µM. Moreover, at FYNα, the inhibition at 50 µM is 47.2%.
Regarding `O=[N+]([O-])c1ccc(CNc2nc(-c3c[nH]c4ncccc34)cs2)cc1` [Compound 24, N-(4-Nitrobenzyl)-4-(1H-pyrrolo[2,3-b]pyridin-3-yl)thiazol-2-amine Hydrobromide], at FYNα, the IC50 stood at 5.21 ± 0.51 µM.
On to `Br.Clc1cccc2c(-c3csc(NCc4ccccc4)n3)c[nH]c12` [Compound 37], for which, on FYNα, the “Fyn % Inhibition @ 50 μM” value was “n.i”.
Take `Brc1cnc2[nH]cc(-c3csc(NCc4ccccc4)n3)c2c1` [Compound 38, N-Benzyl-4-(5-bromo-1H-pyrrolo[2,3-b]pyridin-3-yl)thiazol-2-amine Hydrobromide]: the IC50 at FYNα is 0.55 ± 0.02 µM.
On to `Nc1ccc(CNc2nc(-c3c[nH]c4ncccc34)cs2)cc1` [Compound 25], for which the IC50 on FYNα came to 18.5 ± 2.49 µM.
With `Nc1ccc(Nc2nc(-c3c[nH]c4ncccc34)cs2)cc1` [Compound 16], at FYNα, the inhibition at 50 µM worked out at 42.9%.
As for `Cc1sc(NCc2ccccc2)nc1-c1c[nH]c2ncccc12` [Compound 39, N-Benzyl-5-methyl-4-(1H-pyrrolo[2,3-b]pyridin-3-yl)thiazol-2-amine Hydrobromide], on FYNα, the IC50 stood at 0.39 ± 0.11 µM.
As to `Br.Clc1ccc(CNc2nc(-c3c[nH]c4ncccc34)cs2)cc1` [Compound 20, N-(4-Chlorobenzyl)-4-(1H-pyrrolo[2,3-b]pyridin-3-yl)thiazol-2-amine Hydrobromide], on FYNα, the “Fyn % Inhibition @ 50 μM” value was “n.i”.
As to `c1ccc(Nc2nc(-c3c[nH]c4ncccc34)cs2)cc1` [Compound 6, N-Phenyl-4-(1H-pyrrolo[2,3-b]pyridin-3-yl)thiazol-2-amine], the inhibition at 50 µM on FYNα was 40%.
Consider `c1cnc2[nH]cc(-c3csc(NCc4cnccn4)n3)c2c1` [Compound 30, N-(Pyrazin-2-ylmethyl)-4-(1H-pyrrolo[2,3-b]pyridin-3-yl)thiazol-2-amine Hydrobromide], for which the IC50 at FYNα worked out at 7.39 ± 0.37 µM.
As to `CN(C)c1ccc(Nc2nc(-c3c[nH]c4ncccc34)cs2)cc1` [Compound 15, N ^1-(4-(1H-Pyrrolo[2,3-b]pyridin-3-yl)thiazol-2-yl)-N,^4 N ^4-dimethylbenzene-1,4-diamine Hydrobromide], the inhibition at 50 µM at FYNα was determined as 11.4%.

As usually defined, the IC50 is the point on the concentration scale where inhibition reaches its midpoint. For orientation: inhibition means how much of the control response was suppressed.
